Target: T1, HPK1 (Homo sapiens, UniProt Q92918)
T1 construct: A HiBiT tag was introduced by CRISPR on the N terminus of HPK1 in Jurkat cells; host or cells: Jurkat cells (ATCC TIB-152), monoclonal line with CRISPR knock-in of HiBiT at the endogenous HPK1 locus
Test: HPK1 Cellular HiBit Degradation Assay
Format: cell-based
Details: HiBiT HPK1 Jurkat cells, 24 hrs; for DC50: concentration at which 50% of HPK1 was remaining, read-out: DC50 Category; for Dmax: Jurkat, read-out: Dmax Category
Method: HPK1 Cellular HiBit Degradation Assay
A HiBiT tag was introduced by CRISPR on the N terminus of HPK1 in Jurkat cells (ATCC® TIB-152) to allow quantitation of HPK1 protein levels in a monoclonal human cell line. Cells were plated at 1×10^6 cells/mL, 30 uL/well (3×10^4 cells/well) in complete RPMI 1640 (10% heat inactivated FBS, 1% L-glutamine) in 384-well assay plates (Corning, cat. no. 3570). HPK1 chimeric targeting molecules (CTMs) were added in an 11 point dilution series (11-point, 3.16-fold) with a final assay concentration range of 10 uM to 0.1 nM. The parental Jurkat cell line, with no HiBiT insertion, was included in the assay as a background control. Cell treated with a DMSO vehicle control was used to determine the maximum signal defining 100% HPK1 in the cell. Cells were incubated for 24 hrs at 37° C./5% CO2. Following incubation, 30 uL of complete Nano-Glo HiBiT Lytic Detection Reagent (Promega cat. no. N3040) was added. Cells were incubated for 10 min at room temperature and luminescence was read on an EnVision plate reader (Perkin Elmer, 0.1 sec per well). Viability was assessed in the same plate using Cell Titer Fluor (Promega) and read on an EnVision plate reader to ensure results were not the effect of cytotoxicity. Percent HPK1 remaining per sample was calculated as follows:
[formula] % HPK1 remaining values were plotted as a function of compound concentration and curves were fit using the Prism (GraphPad) equation “log(inhibitor) vs response−Variable slope (four parameters)”. Dmax values were calculated by identifying the lowest % remaining and subtracting from 100. DC50 values were determined by extrapolating from the curve the concentration at which 50% of HPK1 was remaining based on the DMSO control.
HiBiT HPK1 Jurkat cell lines were used to evaluate the total protein levels of HPK1 in a robust human cellular high throughput format. The level of HPK1 remaining following treatment with HPK1 CTMs is reported as Dmax (maximum degradation) achieved at 24 hours when compared to vehicle treated controls. […] These decreases were not a result of cytotoxicity measured by a viability assessment.

[1] = maximum degradation vs DMSO vehicle control

T1 sequence (Q92918 whole entry): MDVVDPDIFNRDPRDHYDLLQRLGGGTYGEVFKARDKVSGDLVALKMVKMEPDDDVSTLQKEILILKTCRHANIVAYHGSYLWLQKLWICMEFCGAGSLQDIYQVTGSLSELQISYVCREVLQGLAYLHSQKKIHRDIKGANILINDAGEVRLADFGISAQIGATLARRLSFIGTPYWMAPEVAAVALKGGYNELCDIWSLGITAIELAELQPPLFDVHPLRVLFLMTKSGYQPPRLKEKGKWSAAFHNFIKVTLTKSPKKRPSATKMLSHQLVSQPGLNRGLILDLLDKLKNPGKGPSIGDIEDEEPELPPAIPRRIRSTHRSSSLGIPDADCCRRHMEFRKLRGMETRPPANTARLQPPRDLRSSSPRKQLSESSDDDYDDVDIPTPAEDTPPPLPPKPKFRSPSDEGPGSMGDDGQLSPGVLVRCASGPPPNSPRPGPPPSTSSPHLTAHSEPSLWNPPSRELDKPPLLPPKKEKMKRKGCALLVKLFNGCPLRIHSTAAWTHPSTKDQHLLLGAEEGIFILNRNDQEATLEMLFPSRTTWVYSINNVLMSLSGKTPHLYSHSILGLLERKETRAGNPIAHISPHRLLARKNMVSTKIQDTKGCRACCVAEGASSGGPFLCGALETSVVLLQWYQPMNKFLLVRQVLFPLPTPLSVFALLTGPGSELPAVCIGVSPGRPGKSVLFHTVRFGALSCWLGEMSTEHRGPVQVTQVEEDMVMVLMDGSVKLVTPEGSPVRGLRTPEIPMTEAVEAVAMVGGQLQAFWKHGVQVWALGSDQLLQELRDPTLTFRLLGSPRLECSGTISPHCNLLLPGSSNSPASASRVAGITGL

## CC(C)n1cnc2cc(-c3ccc4c(c3)N([C@H]3C[C@@H](N5CCCCC5)C3)C(=O)C43CCN(C(=O)C4CCN(C(=O)C5CCN(c6ccc(C7CCC(=O)NC7=O)cn6)CC5)CC4)CC3)nc(Oc3ccccc3F)c21 (mixture of isomers) [Example 76, (3RS)-3-(6-{4-[4-({6-[4-(2-fluorophenoxy)-3-(propan-2-yl)-3H-imidazo[4,5-c]pyridin-6-yl]-2-oxo-1-[(1S,3S)-3-(piperidin-1-yl)cyclobutyl]-1,2-dihydrospiro[indole-3,4′-piperidin]-1′-yl}carbonyl)piperidine-1-carbonyl]piperidin-1-yl}pyridin-3-yl)piperidine-2,6-dione]
  DC50: 100 to 500 nM
[1]
  Dmax: > 85%

## CC(C)n1cnc2cc(-c3ccc4c(c3)N([C@H]3C[C@@H](N5CCCCC5)C3)C(=O)C43CCN(C(=O)[C@@H]4CCN(C(=O)C5CCN(c6ccc(C7CCC(=O)NC7=O)cn6)CC5)C4)CC3)nc(Nc3ccccc3F)c21 (stereo partly drawn) [Example 24, 3-(6-(4-((R)-3-(6-(4-((2-fluorophenyl)amino)-3-isopropyl-3H-imidazo[4,5-c]pyridin-6-yl)-2-oxo-1-((1s,3S)-3-(piperidin-1-yl)cyclobutyl)spiro[indoline-3,4′-piperidine]-1′-carbonyl)pyrrolidine-1-carbonyl)piperidin-1-yl)pyridin-3-yl)piperidine-2,6-dione]
  DC50: < 100 nM
[1]
  Dmax: > 85%

## CC(C)n1cnc2cc(-c3ccc4c(c3)N([C@H]3C[C@@H](N5CCCCC5)C3)C(=O)C43CCN(C(=O)[C@H]4CC[C@H](C(=O)N5CCC(N(C)c6ccc(C7CCC(=O)NC7=O)cn6)CC5)CC4)CC3)nc(Nc3ccncc3F)c21 (mixture of isomers) [Example 139, (3RS)-3-{6-[methyl({1-[(1R,4R)-4-[(6-{4-[(3-Fluoropyridin-4-yl)amino]-3-(propan-2-yl)-3H-imidazo[4,5-c]pyridin-6-yl}-2-oxo-1-[(1S,3S)-3-(piperidin-1-yl)cyclobutyl]-1,2-dihydrospiro[indole-3,4′-piperidin]-1′-yl)carbonyl]cyclohexanecarbonyl]piperidin-4-yl})amino]pyridin-3-yl}piperidine-2,6-dione]
  DC50: < 100 nM
[1]
  Dmax: 70 to 85%

## CC(C)n1cnc2cc(-c3ccc4c(c3)N([C@H]3C[C@@H](N5CCCCC5)C3)C(=O)C43CCN(C(=O)[C@@H]4CCN(C(=O)C5CCN(c6ccc(C7CCC(=O)NC7=O)cc6)CC5)C4)CC3)nc(NC3CC3)c21 (mixture of isomers) [Example 232, (3RS)-3-(4-{4-[(3R)-3-({6-[4-(cyclopropylamino)-3-(propan-2-yl)-3H-imidazo[4,5-c]pyridin-6-yl]-2-oxo-1-[(1S,3S)-3-(piperidin-1-yl)cyclobutyl]-1,2-dihydrospiro[indole-3,4′-piperidin]-1′-yl}carbonyl)pyrrolidine-1-carbonyl]piperidin-1-yl}phenyl)piperidine-2,6-dione]
  DC50: < 100 nM
[1]
  Dmax: 70 to 85%

## CC(C)n1cnc2cc(-c3ccc4c(c3)N([C@H]3C[C@@H](N5CCCCC5)C3)C(=O)C43CCN(C(=O)[C@@H]4CCN(C(=O)C5CCN(c6ccc(C7CCC(=O)NC7=O)cn6)CC5)[C@@H]4C)CC3)nc(Nc3ccccc3F)c21 (mixture of isomers) [Example 249, (3RS)-3-(6-{4-[(2R,3R)-3-[(6-{4-[(2-fluorophenyl)amino]-3-(propan-2-yl)-3H-imidazo[4,5-c]pyridin-6-yl}-2-oxo-1-[(1S,3S)-3-(piperidin-1-yl)cyclobutyl]-1,2-dihydrospiro[indole-3,4′-piperidin]-1′-yl)carbonyl]-2-methylpyrrolidine-1-carbonyl]piperidin-1-yl}pyridin-3-yl)piperidine-2,6-dione]
  DC50: < 100 nM
[1]
  Dmax: 50 to 70%

## CC(C)n1cnc2cc(-c3ccc4c(c3)N([C@H]3C[C@@H](N5CCCCC5)C3)C(=O)C43CCN(C(=O)C4(C)CCN(C(=O)C5CCN(c6ccc([C@H]7CCC(=O)NC7=O)cn6)CC5)CC4)CC3)nc(NC3CC3)c21 [Example 213, (3R)-3-(6-{4-[4-({6-[4-(cyclopropylamino)-3-(propan-2-yl)-3H-imidazo[4,5-c]pyridin-6-yl]-2-oxo-1-[(1S,3S)-3-(piperidin-1-yl)cyclobutyl]-1,2-dihydrospiro[indole-3,4′-piperidin]-1′-yl}carbonyl)-4-methylpiperidine-1-carbonyl]piperidin-1-yl}pyridin-3-yl)piperidine-2,6-dione]
  DC50: < 100 nM
[1]
  Dmax Category: B (B: >70%-<85%)

## CC(C)n1cnc2cc(-c3ccc4c(c3)N([C@H]3C[C@@H](N5CCCCC5)C3)C(=O)C43CCN(C(=O)[C@@H]4CCCN(C(=O)CC5CCN(c6ccc(C7CCC(=O)NC7=O)cn6)CC5)C4)CC3)nc(NC3CC3)c21 (mixture of isomers) [Example 235, (3RS)-3-[6-(4-{2-[(3R)-3-({6-[4-(cyclopropylamino)-3-(propan-2-yl)-3H-imidazo[4,5-c]pyridin-6-yl]-2-oxo-1-[(1S,3S)-3-(piperidin-1-yl)cyclobutyl]-1,2-dihydrospiro[indole-3,4′-piperidin]-1′-yl}carbonyl)piperidin-1-yl]-2-oxoethyl}piperidin-1-yl)pyridin-3-yl]piperidine-2,6-dione]
  DC50: < 100 nM
[1]
  Dmax: 70 to 85%

## CC(C)n1cnc2cc(-c3ccc4c(c3)N([C@H]3C[C@@H](N5CCCCC5)C3)C(=O)C43CCN(C(=O)[C@@H]4[C@H]5CCN(C(=O)C6CCN(c7ccc(C8CCC(=O)NC8=O)cn7)CC6)[C@H]54)CC3)nc(Nc3ccccc3F)c21 (mixture of isomers) [Example 266, (3RS)-3-(6-{4-[(1R,5R,6R)-6-[(6-{4-[(2-fluorophenyl)amino]-3-(propan-2-yl)-3H-imidazo[4,5-c]pyridin-6-yl}-2-oxo-1-[(1S,3S)-3-(piperidin-1-yl)cyclobutyl]-1,2-dihydrospiro[indole-3,4′-piperidin]-1′-yl)carbonyl]-2-azabicyclo[3.1.0]hexane-2-carbonyl]piperidin-1-yl}pyridin-3-yl)piperidine-2,6-dione]
  DC50: < 100 nM
[1]
  Dmax: 70 to 85%

## CC(C)n1cnc2cc(-c3ccc4c(c3)N([C@H]3C[C@@H](N5CCCCC5)C3)C(=O)C43CCN(C(=O)[C@H]4CCN(C(=O)[C@H]5CC[C@@H](Nc6cccc7c6n(C)c(=O)n7C6CCC(=O)NC6=O)CC5)C4)CC3)nc(Nc3ccccc3F)c21 (mixture of isomers) [Example 143, (3RS)-3-(3-methyl-2-oxo-4-{[(1R,4R)-4-[(3S)-3-[(6-{4-[(2-fluorophenyl)amino]-3-(propan-2-yl)-3H-imidazo[4,5-c]pyridin-6-yl}-2-oxo-1-[(1S,3S)-3-(piperidin-1-yl)cyclobutyl]-1,2-dihydrospiro[indole-3,4′-piperidin]-1′-yl)carbonyl]pyrrolidine-1-carbonyl]cyclohexyl]amino}-2,3-dihydro-1H-1,3-benzodiazol-1-yl)piperidine-2,6-dione]
  DC50: < 100 nM
[1]
  Dmax: 50 to 70%

## Cc1cc(F)c(Nc2nc(-c3ccc4c(c3)N([C@H]3C[C@@H](N5CCCCC5)C3)C(=O)C43CCN(C(=O)C4=CCN(C(=O)C5CCN(c6ccc7c(c6)C(=O)N(C6CCC(=O)NC6=O)C7=O)CC5)CC4)CC3)cc3ncn(C(C)C)c23)cc1C(=O)NC(C)C (mixture of isomers) [Example 37, 5-[(6-{1′-[1-(1-{2-[(3RS)-2,6-dioxopiperidin-3-yl]-1,3-dioxo-2,3-dihydro-1H-isoindol-5-yl}piperidine-4-carbonyl)-1,2,3,6-tetrahydropyridine-4-carbonyl]-2-oxo-1-[(1S,3S)-3-(piperidin-1-yl)cyclobutyl]-1,2-dihydrospiro[indole-3,4′-piperidin]-6-yl}-3-(propan-2-yl)-3H-imidazo[4,5-c]pyridin-4-yl)amino]-4-fluoro-2-methyl-N-(propan-2-yl)benzamide]
  DC50: 100 to 500 nM
[1]
  Dmax: 50 to 70%

## CC(C)n1cnc2cc(-c3ccc4c(c3)N([C@H]3C[C@@H](N5CCCCC5)C3)C(=O)C43CCN(C(=O)[C@H]4CC[C@H](C(=O)N5CCC(Oc6ccc(C7CCC(=O)NC7=O)cn6)CC5)CC4)CC3)nc(Nc3ccccc3F)c21 (mixture of isomers) [Example 28, (3RS)-3-[6-({1-[(1R,4R)-4-[(6-{4-[(2-fluorophenyl)amino]-3-(propan-2-yl)-3H-imidazo[4,5-c]pyridin-6-yl}-2-oxo-1-[(1S,3S)-3-(piperidin-1-yl)cyclobutyl]-1,2-dihydrospiro[indole-3,4′-piperidin]-1′-yl)carbonyl]cyclohexanecarbonyl]piperidin-4-yl}oxy)pyridin-3-yl]piperidine-2,6-dione]
  DC50: < 100 nM
[1]
  Dmax: 70 to 85%

Source: US12091426B2, “Bifunctional degraders of hematopoietic progenitor kinase and therapeutic uses thereof” (Nurix Therapeutics, Inc., priority 2021, dated 2024)
